Results published in patent US20210395256A1, “TYROSINE KINASE INHIBITORS, COMPOSITIONS AND METHODS THERE OF” (Betta Pharmaceuticals Co., Ltd., priority 2018, published 2021).
Where two headings read alike, the source gives them in different places.

Legend:
TrkA kinase = TrkA kinase (Homo sapiens, UniProt P04629); experiment: TrkA kinase assay (mobility shift assay); format: biochemical; conditions: read-out: Trk A Kinase IC50
How it was run: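 Ten-point compound series was preincubated 10 min at room temperature with TrkA, then FAM-peptide plus ATP added in HEPES pH 7.5/Brij-35 buffer and reacted at 28 °C before EDTA quench.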

[1] = Plasma protein binding (equilibrium dialysis), human; format: in vitro ADME; conditions: pH 7.4, human plasma, 1 μM, 6 hours dialysis; for fraction unbound at 6 h, 1 μM: read-out: Mean % Bound Human (converted)
Procedure: (§1) Example 204 Plasma Protein Binding Measurements
(§2) The plasma protein binding was measured as the following procedure.
(§3) 1) Preparation of 100 mM sodium phosphate and 150 mM NaCl buffer (PBS)
(§4) A basic solution was prepared by dissolving 14.2 g/L Na2HPO4 and 8.77 g/L NaCl in deionized water and the solution could be stored at 4° C. for up to 7 days. An acidic solution was prepared by dissolving 12.0 g/L NaH2PO4 and 8.77 g/L NaCl in deionized water and the solution could be stored at 4° C. for up to 7 days. The basic solution was titrated with the acidic solution to pH 7.4 and store at 4° C. for up to 7 days. pH was checked on the day of experiment and was adjusted if outside specification of 7.4±0.1.
(§5) Frozen plasma was thawed immediately at room temperature.
(§6) The plasma was centrifuged at 3,220 g for 10 minutes to remove clots and supernatant was collected into a fresh tube. The pH of the plasma was checked and recorded.
(§7) Note: a). Only use plasma that has been thawed no more than twice since arrival. b). Only use plasma within the range of pH 7 to pH 8.
(§8) 3) Preparation of working solutions
(§9) The working solutions of test compounds and control compound ketoconazole were prepared in DMSO at the concentration of 200 μM. And then 3 μL of working solution was removed to mix with 597 μL of human, rat or mouse plasma to achieve a final concentration of 1 μM (0.5% DMSO). Plasma samples were vortexed thoroughly.
(§10) 4) Preparation of dialysis membranes
(§11) The dialysis membranes were soaked in ultrapure water for 60 minutes to separate strips, then in 20% ethanol for 20 minutes, finally in dialysis buffer for 20 minutes.
(§12) 5) Procedure for equilibrium dialysis
(§13) The dialysis apparatus was assembled according to the manufacturer's instruction. Each cell was filled with 120 μL of plasma sample and dialyzed against equal volume of dialysis buffer (PBS). The assay was performed in duplicate. The dialysis plate was sealed and incubated in an incubator at 37° C. with 5% CO2 at 100 rpm for 6 hours. At the end of incubation, seal was removed and 50 μL of samples from both buffer and plasma chambers were transferred to wells of a 96-well plate.
(§14) 6) Procedure for sample analysis
(§15) 50 μL of blank plasma was added to each buffer samples and an equal volume of PBS was supplemented to the collected plasma sample. 300 μL of room temperature quench solution (acetonitrile containing internal standards (1S, 100 nM Alprazolam, 500 nM Labetalol and 2 μM Ketoprofen)) was added to precipitate protein. Samples in plate were vortexed for 5 minutes and centrifuged at 3,220 g for 30 minutes at 4° C. And then 100 μL of the supernatant was transferred to a new 96-well plate with 100 μL or 200 μL water (depends on the LC-MS signal response and peak shape) for LC-MS/MS analysis.
(§16) Calculate the percentages of test compound and control compound bound as follows:
(§17) % Free=(Peak Area Ratiobuffer chamber/Peak Area Ratioplasma chamber)*100
(§18) % Recovery=(Peak Area Ratiobuffer chamber+Peak Area Ratioplasma chamber)/Peak Area Ratio total sample*100
(§19) Peak Area Ratiobuffer chamber means the conc for free fraction
(§20) Peak Area Ratioplasma chamber means the conc for both free and bound fraction
(§21) Peak Area Ratiototal sample means the conc for starting sample before incubation

[2] = Plasma protein binding (equilibrium dialysis), mouse; format: in vitro ADME; conditions: pH 7.4, 6 hours dialysis; for fraction unbound at 6 h, 1 μM: read-out: Mean % Bound Mouse (converted)
Procedure: as §1, §2, §3, §4, §5, §6, §7, §8, §9, §10, §11, §12, §13, §14, §15, §16, §17, §18, §19, §20, §21

[3] = Plasma protein binding (equilibrium dialysis), rat; format: in vitro ADME; conditions: pH 7.4, 6 hours dialysis; for fraction unbound at 6 h, 1 μM: read-out: Mean % Bound Rat (converted)
Procedure: as §1, §2, §3, §4, §5, §6, §7, §8, §9, §10, §11, §12, §13, §14, §15, §16, §17, §18, §19, §20, §21

Ba/F3-TPM3-NTRK1 = target: T1, Ba/F3-TPM3-NTRK1 (Homo sapiens, UniProt P04629); experiment: Ba/F3-TPM3-NTRK1 cells proliferation assay; format: cell-based; conditions: 72 h, CellTiter Glo
T1 construct: expressed in transfected cells; host or cells: Ba/F3; the other entry of the earlier key: TPM3 (P06753, Tropomyosin alpha-3 chain)
T1 sequence (P04629 510-796 limits assumed): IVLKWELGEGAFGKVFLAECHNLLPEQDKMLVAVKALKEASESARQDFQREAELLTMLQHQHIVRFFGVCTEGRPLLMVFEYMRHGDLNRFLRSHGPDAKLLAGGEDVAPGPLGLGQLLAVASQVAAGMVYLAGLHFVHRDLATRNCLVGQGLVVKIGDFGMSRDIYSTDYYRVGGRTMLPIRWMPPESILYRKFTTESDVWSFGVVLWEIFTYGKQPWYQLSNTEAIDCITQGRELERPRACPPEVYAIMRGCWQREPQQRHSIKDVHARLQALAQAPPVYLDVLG
Procedure: Example 202 Ba/F3-TPM3-NTRK1 and Ba/F3-ETV6-NTRK3 cells proliferation assay
Cell line: Ba/F3 cells with TPM3-NTRK1 or ETV6-NTRK3 fusion mutation gene stably overexpressed named Ba/F3-TPM3-NTRK1 and Ba/F3-ETV6-NTRK3.
RPMI 1640 and 10% FBS and 1% PS and 2 ug/mL puromycin.
b) Collect cell to a 15 mL centrifuged tube, centrifuge at 1000 rpm for 5 min. Discard the supernatant, count, and make the cell density at 1.49×10^4 cells/mL, then place it in a 37° C., 5% CO2 incubator.
a) The test compound (20 mM stock solution) was diluted to 60 μM with 100% DMSO as starting concentration then 3-fold serial diluted with “9+0” concentrations. in a 96-well dilution plate (Thermo, Cat. No. 249944);
b) The above compound solution was diluted 1:20 times with culture medium to prepare a 10 fold working solution;
a) Take cells in log phase growth, centrifuge at 1000 rpm for 5 min, then resuspend the cells with culture medium, then count cells;
b) Cells were seeded to 96-well cell culture plate with density at 2000 cells/well;
a) Compounds prepared at step 2 were added to cell plate with 15 μL per well, the final concentrations were 300, 100, 33.33, 11.11, 3.70, 1.23, 0.41, 0.14, 0.05 and 0 nM, and the final concentration of DMSO was 0.5%. The blank control well was a culture medium (0.5% DMSO);
c) The cells were incubated for an additional 72 h in the incubator.
a) Remove the 96-well cell culture plate and add 50 μl of CTG reagent (CellTiter Glo kit, promega, Cat #G7573).
b) Plate was shaked for 2 min and then let it cool for 30 min at room temperature.
c) The Luminescence signal value was read using a PerkinElmer reader.
Experimental Data Analysis
Data were analyzed using GraphPad Prism 6.0 software to obtain a fitted curve of compound activity.
Fit the Compound IC50 from non-linear regression equation:
Y=Bottom+(Top-Bottom)/(1+10^((Log IC50-X)×HillSlope));
X: The log of the concentration of the compound; Y: Luminescence value.

NTRK1-G595R = NTRK1-G595R (Homo sapiens, UniProt P04629, G595R); experiment: NTRK1-G595R cell proliferation assay (Table 13); format: cell-based
NTRK1-G595R, sequence (P04629 33-796 G595R): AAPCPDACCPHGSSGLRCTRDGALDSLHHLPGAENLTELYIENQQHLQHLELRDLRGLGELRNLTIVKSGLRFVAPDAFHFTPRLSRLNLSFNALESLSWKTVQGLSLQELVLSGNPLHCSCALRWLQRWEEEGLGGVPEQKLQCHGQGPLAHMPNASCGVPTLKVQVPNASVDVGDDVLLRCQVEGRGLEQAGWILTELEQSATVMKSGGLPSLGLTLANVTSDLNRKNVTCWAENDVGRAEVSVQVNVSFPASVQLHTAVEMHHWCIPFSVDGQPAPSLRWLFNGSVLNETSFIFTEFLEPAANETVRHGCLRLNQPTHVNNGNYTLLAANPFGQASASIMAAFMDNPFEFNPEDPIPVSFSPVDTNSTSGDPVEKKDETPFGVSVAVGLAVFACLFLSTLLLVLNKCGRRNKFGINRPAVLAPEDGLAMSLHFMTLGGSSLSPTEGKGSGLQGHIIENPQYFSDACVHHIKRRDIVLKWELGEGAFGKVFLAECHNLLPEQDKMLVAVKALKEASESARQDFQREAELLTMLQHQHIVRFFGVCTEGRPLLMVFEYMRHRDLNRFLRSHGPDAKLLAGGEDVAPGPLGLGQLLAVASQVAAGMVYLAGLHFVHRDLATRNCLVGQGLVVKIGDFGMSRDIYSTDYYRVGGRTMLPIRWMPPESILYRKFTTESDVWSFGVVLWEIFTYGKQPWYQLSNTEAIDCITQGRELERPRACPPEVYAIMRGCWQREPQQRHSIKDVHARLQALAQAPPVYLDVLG

[4] = Liver microsomes metabolic stability assay, mouse; format: in vitro ADME; conditions: male, mouse liver microsomes 0.5 mg/mL, 37° C.; for half-life at 2 μM: read-out: t1/2 Mouse
Procedure: (§22) Example 203 Liver Microsomes Metabolic Stability Assay
(§23) Pooled human liver microsomes (Cat. 452117) were purchased from Corning. Pooled male rat liver microsomes (Cat. R1000) and pooled male mouse liver microsomes (Cat. M1000) were purchased from XENOTECH. Microsomes were stored at −80° C.
(§24) 1) Make a master solution containing phosphate buffer, ultra-pure H2O and MgCl2 solution according to Table 14.
(§25) 2) Two separated experiments were performed as follows.
(§26) a) With NADPH: 10 μL of 20 mg/mL liver microsomes and 40 μL of 10 mM NADPH were added to the incubations. The final concentrations of microsomes and NADPH were 0.5 mg/mL and 1 mM, respectively.
(§27) b) Without NADPH: 10 μL of 20 mg/mL liver microsomes and 40 μL of ultra-pure H2O were added to the incubations. The final concentration of microsomes was 0.5 mg/mL.
(§28) 3) The reaction was started with the addition of 4 μL test compounds solutions or control compound solution (verapamil) at the final concentration of 2 μM and carried out at 37° C.
(§29) 4) Aliquots of 50 μL were taken from the reaction solution at 0, 15, 30, 45 and 60 min. The reaction solutions were stopped by the addition of 4 volumes of cold acetonitrile with 1S (100 nM alprazolam, 200 nM caffeine, 200 nM labetalol and 2 μM ketoprofen). Samples were centrifuged at 3,220 g for 40 minutes. Aliquot of 100 μL of the supernatant was mixed with 100 μL of ultra-pure H2O and then used for LC-MS/MS analysis. All experiments were performed in duplicate.
(§30) The slope value, k, was determined by linear regression of the natural logarithm of the remaining percentage of the parent drug vs. incubation time curve.
(§31) The in vitro half-life (in vitro t1/2) was determined from the slope value:
(§32) Conversion of the in vitro t1/2 (in min) into the in vitro intrinsic clearance (in vitro CLint, in μL/min/mg proteins) was done using the following equation (mean of duplicate determinations): […]
(§33) The control compound (verapamil) was included in the assay. Any value of the compounds that was not within the specified limits will be rejected and the experiment will be repeated.

[5] = Liver microsomes metabolic stability assay, rat; format: in vitro ADME; conditions: male, rat liver microsomes 0.5 mg/mL, 37° C.; for half-life at 2 μM: read-out: t1/2 Rat
Procedure: as §22, §23, §24, §25, §26, §27, §28, §29, §30, §31, §32, §33

[6] = Liver microsomes metabolic stability assay, human; format: in vitro ADME; conditions: human liver microsomes 0.5 mg/mL, 37° C.; for half-life at 2 μM: read-out: t1/2 Human
Procedure: as §22, §23, §24, §25, §26, §27, §28, §29, §30, §31, §32, §33

TrkA kinase, sequence (P04629 33-796): as the sequence (P04629 33-796 G595R) above, with R563G counted along it

| Compound | IC50 (TrkA kinase; numeric values) | recovery at 6 h, 1 μM [1] | fraction unbound at 6 h, 1 μM [1] | recovery at 6 h, 1 μM [2] | fraction unbound at 6 h, 1 μM [2] | recovery at 6 h, 1 μM [3] | fraction unbound at 6 h, 1 μM [3] | IC50 (Ba/F3-TPM3-NTRK1) | IC50 (NTRK1-G595R) | microsomal CLint at 2 μM [4] | half-life at 2 μM [4] | microsomal CLint at 2 μM [5] | half-life at 2 μM [5] | microsomal CLint at 2 μM [6] | half-life at 2 μM [6] | IC50 (TrkA kinase; class symbols) |
| --- | --- | --- | --- | --- | --- | --- | --- | --- | --- | --- | --- | --- | --- | --- | --- | --- |
| NC1(c2nnc(-c3cnn4ccc(N5CCC[C@@H]5c5cc(F)ccc5F)nc34)[nH]2)CCC1 [Compound 24, (R)-1-(5-(5-(2-(2,5-difluorophenyl)pyrrolidin-1-yl)pyrazolo[1,5-a]pyrimidin-3-yl)-4H-1,2,4-triazol-3-yl)cyclobutan-1-amine] | 11.8 nM | 85.9% | 0.126 | 86.5% | 0.0817 | 82.5% | 0.164 | – | – | – | – | – | – | – | – | – |
| C[C@@H](O)c1nnc(-c2cnn3ccc(N4CCC[C@@H]4c4cc(F)ccc4F)nc23)[nH]1 [Compound 34, (R)-1-(5-(5-((R)-2-(2,5-difluorophenyl)pyrrolidin-1-yl)pyrazolo[1,5-a]pyrimidin-3-yl)-4H-1,2,4-triazol-3-yl)ethan-1-ol] | 0.71 nM | 91.7% | 0.0868 | 98.6% | 0.0918 | 92.4% | 0.109 | 3.33 nM | – | – | – | – | – | – | – | – |
| OCc1cc2nc(-c3cnn4ccc(N5CCC[C@@H]5c5cc(F)ccc5F)nc34)oc2cc1F [Compound 94, (R)-(2-(5-(2-(2,5-difluorophenyl)pyrrolidin-1-yl)pyrazolo[1,5-a]pyrimidin-3-yl)-6-fluorobenzo[d]oxazol-5-yl)methanol] | 0.79 nM | – | – | – | – | – | – | 1.38 nM | 62.9 nM | – | – | – | – | – | – | – |
| COCCOc1cc2nc(-c3cnn4ccc(N5CCC[C@@H]5c5cc(F)ccc5F)nc34)[nH]c2cc1OCCOC [Compound 101, (R)-3-(5,6-bis(2-methoxyethoxy)-1H-benzo[d]imidazol-2-yl)-5-(2-(2,5-difluorophenyl)pyrrolidin-1-yl)pyrazolo[1,5-a]pyrimidine] | 0.4 nM | – | – | – | – | – | – | 0.28 nM | 165 nM | 103 µL/min/mg | 13.5 min | 105 µL/min/mg | 13.2 min | 49.4 µL/min/mg | 28.1 min | – |
| N#Cc1cc2[nH]c(-c3cnn4ccc(N5CCC[C@@H]5c5cc(F)ccc5F)nc34)nc2cc1F [Compound 123, (R)-2-(5-(2-(2,5-difluorophenyl)pyrrolidin-1-yl)pyrazolo[1,5-a]pyrimidin-3-yl)-5-fluoro-1H-benzo[d]imidazole-6-carbonitrile] | – | – | – | – | – | – | – | 1.9 nM | 117 nM | 39 µL/min/mg | 35.5 min | 60.8 µL/min/mg | 22.8 min | 94.1 µL/min/mg | 14.7 min | ≤ 10 nM |
| CN(C)c1cc2[nH]c(-c3cnn4ccc(N5CCC[C@@H]5c5cc(F)ccc5F)nc34)nc2cc1C#N [Compound 144, (R)-2-(5-(2-(2,5-difluorophenyl)pyrrolidin-1-yl)pyrazolo[1,5-a]pyrimidin-3-yl)-6-(dimethylamino)-1H-benzo[d]imidazole-5-carbonitrile] | 1.1 nM | – | – | – | – | – | – | 3.39 nM | 221 nM | – | – | – | – | – | – | – |
| Fc1ccc(F)c([C@H]2CCCN2c2ccn3ncc(-c4nc5cc(CN6CCOCC6)ccc5[nH]4)c3n2)c1 [Compound 162, (R)-4-((2-(5-(2-(2,5-difluorophenyl)pyrrolidin-1-yl)pyrazolo[1,5-a]pyrimidin-3-yl)-1H-benzo[d]imidazol-5-yl)methyl)morpholine] | 0.6 nM | – | – | – | – | – | – | 1.33 nM | 119 nM | – | – | – | – | – | – | – |
